Measurements as given in US20030044856A1, “Method of determining volume dependent hypertension through protein reduction in phosphorylation or concentration and related apparatus” (priority 1997, published 2003).

Columns and labels:
[1] = test system: Mr = 72,000 brush border membrane protein; details: 10 μM cyclic AMP
Text: The preparation of the rat renal proximal brush border membrane vesicles was accomplished in the following manner: When the systolic blood pressure in the DOCA and the 2K1C rat groups became elevated compared with each of the control groups (usually in 3-4 weeks), the kidney cortex was removed to prepare the proximal brush border membrane vesicles by a calcium precipitation method as described in Kempson et al., Inhibition of Renal Brush Border Phosphate Transport and Stimulation of Renal Gluconeogenesis by Cyclic AMP and Parathyroid Hormone, Biochem., Pharmacol., 32:pp. 1533-37 (1983). Vesicles were utilized only if there was at least an 8-fold enrichment in gamma-glutamyl transpeptidase activity in the proximal brush border membrane fraction compared to the original cortical homogenate. […]
The test results reported herein were determined by SDS polyacrylamide gel electrophoresis, autoradiography and densitometry. […] Protein concentration was determined by the method of Bradford using bovine serum albumin as a standard.
Autoradiography and densitometry were performed in accordance with Laminski, et al., Phosphorylation of Endogenous Protein in Primate Kidney. […] Scan traces were recorded with an Ultroscan XL laser densitometer (Pharmacia, LKB) and analyzed by using the computer GelScan XL Software (Version 2.1, Pharmacia).

[2] = Systolic blood pressure by tail-cuff method in DOCA-salt hypertensive rats; format: in vivo, rat; details: mean±SEM
Procedure: (§1) Male Sprague-Dawley rats, weighing 125-150 g (Charles River, Wilmington, Mass.), were randomly divided into three groups: (1) DOCA-salt group-rats underwent unilateral nephrectomy and were given an initial injection of 12.5 mg of deoxycorticosterone acetate (DOCA) followed by 6.5 mg weekly which was coupled with 1 percent saline as drinking water (Pamani et al. Altered Activity of the Sodium-Potassium Pump in Arteries of Rats with Steroid Hypertension, Clin. Sci. Mol. Med., 55:pp. 41s-43s (1978); (2) Uninephrectomized control group (UNE)-rats underwent unilateral nephrectomy and were given tap water ad libitum; (3) Normal group-normal rats drank tap water ad libitum and were not subjected to surgery. All three groups were maintained on normal rat chow. Systolic blood pressure was measured weekly by the tail-cuff method.
Referring to FIG. 1, there is shown a plot of systolic blood pressure in mm Hg versus time in days. The study involved ten rats in each of the three DOCA categories: (a) DOCA-salt; (b) UNE-uninephrectomized; and (c) NOR, normal group. The 2K1C study involved eight rats in each of the three groups: (a) 2K1C; (b) SHAM, sham-operated group; and (c) NOR, normal group.
The systolic blood pressure in the 2K1C rats increased from 121.4±1.7 mm Hg to 137.6±3.0 mm Hg by the first week after surgery and to 173.5±4.4 mm Hg by the 21st day (p<0.001). […]

[3] = test system: Mr = 72,000 brush border membrane protein; assay: Phosphorylation of 72,000 Mr renal brush border membrane protein from treated rats (SDS-PAGE, autoradiography, densitometry); format: in vivo, rat; details: for relative area units under the peak in the densitometry tracings of autoradiogram of the Mr = 72,000 brush border membrane protein: mean ± SEM
Procedure: as §1, with “([…]” for “(Pamani”, “method. […] J. Biol. Chem. 257:pp 992-99 (1982). […] Anal Biochem, 72:pp. 248-54 (1976). Autoradiography and densitometry were performed in accordance with […], et al., Phosphorylation of Endogenous Protein in Primate Kidney. […] Biochem. Physiol. 103B:pp 267-73 (1992). […] Data is expressed as mean±SEM, with statistical significance being calculated by Student's t test and the ANOVA test.” for “method.”

## Nc1ncnc2c1ncn2[C@@H]1O[C@@H]2COP(=O)(O)O[C@H]2[C@H]1O [cyclic AMP]
[1]; membranes from 2K1C, Sham and Normal rats
  influence of cAMP on phosphorylation of the Mr=72,000 protein: not influenced
[1]; membranes from DOCA, UNE and Normal rats
  effect of addition of cyclic AMP on phosphorylation of the Mr=72,000 protein: did not affect

## CC(=O)OCC(=O)[C@H]1CC[C@H]2[C@@H]3CCC4=CC(=O)CC[C@]4(C)[C@H]3CC[C@]12C [DOCA, deoxycorticosterone acetate]
[2]; 7th day of treatment
  systolic blood pressure: 128.9±2.1 mm Hg
[2]; 21st day, p<0.001
  systolic blood pressure: 188.2±5.3 mm Hg
[3]; +cAMP (10 μM cyclic AMP in incubation mixture)
  relative area units under the peak in the densitometry tracings of autoradiogram of the Mr = 72,000 brush border membrane protein: 1.218 ± 0.33 relative area units
[3]; DOCA group rats, p<0.01
  phosphorylation of the Mr=72,000 protein compared with UNE and normal rats: significant attenuation
[3]; −cAMP (no cyclic AMP in incubation mixture)
  relative area units under the peak in the densitometry tracings of autoradiogram of the Mr = 72,000 brush border membrane protein: 1.389 ± 0.37 relative area units
